From PubChem BioAssay AID248 (DTP/NCI, 2004)
Values joined by “and” are separate entries in the source; they are usually repeats but may differ in a detail not shown here. Equal entries are not always repeated. Inconclusive results and toxic doses are left out. Rule as the data show it: active = T/C of 150% or more; inactive = T/C below 125%.

System: L1210 leukemia ip in BDF1 mice, survival T/C
Test: NCI In Vivo Anticancer Drug Screen. Data for tumor model L1210 Leukemia (intraperitoneal) in B6D2F1 (BDF1) mice
Details: higher = longer survival
In short: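 Read-out is survival time, reported as the treated-group measurement over the vehicle-control measurement.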

[1] = endpoint: mean survival time, dose: 100.0 mg/kg/injection, schedule: Q01DX009 (ip), vehicle: Klucel (hydroxypropylcellulose) (HPC)
[2] = endpoint: mean survival time, dose: 200.0 mg/kg/injection, schedule: Q01DX009 (ip), vehicle: Klucel (hydroxypropylcellulose) (HPC)
[3] = endpoint: mean survival time, dose: 400.0 mg/kg/injection, schedule: Q01DX009 (ip), vehicle: Klucel (hydroxypropylcellulose) (HPC)
[4] = endpoint: mean survival time, dose: 100.0 mg/kg/injection, schedule: Q01DX009 (ip), vehicle: saline with Tween-80
[5] = endpoint: mean survival time, dose: 200.0 mg/kg/injection, schedule: Q01DX009 (ip), vehicle: saline with Tween-80
[6] = endpoint: mean survival time, dose: 400.0 mg/kg/injection, schedule: Q01DX009 (ip), vehicle: saline with Tween-80
[7] = endpoint: mean survival time, dose: 100.0 mg/kg/injection, schedule: Q04DX003 (ip), vehicle: Klucel (hydroxypropylcellulose) (HPC)
[8] = endpoint: mean survival time, dose: 200.0 mg/kg/injection, schedule: Q04DX003 (ip), vehicle: Klucel (hydroxypropylcellulose) (HPC)
[9] = endpoint: mean survival time, dose: 400.0 mg/kg/injection, schedule: Q04DX003 (ip), vehicle: Klucel (hydroxypropylcellulose) (HPC)
[10] = endpoint: mean survival time, dose: 25.0 mg/kg/injection, schedule: Q01DX009 (ip), vehicle: saline
[11] = endpoint: mean survival time, dose: 100.0 mg/kg/injection, schedule: Q04DX003 (ip), vehicle: saline
[12] = endpoint: mean survival time, dose: 200.0 mg/kg/injection, schedule: Q04DX003 (ip), vehicle: saline
[13] = endpoint: mean survival time, dose: 400.0 mg/kg/injection, schedule: Q04DX003 (ip), vehicle: saline

Measured: T/C

N=C(N)S/C=C/C(=O)O
inactive: endpoint: mean survival time, dose: 25.0 mg/kg/injection, schedule: Q04DX002 (ip), vehicle: saline with Tween-80 96 % of control | endpoint: mean survival time, dose: 50.0 mg/kg/injection, schedule: Q04DX002 (ip), vehicle: saline with Tween-80 96 % of control | endpoint: mean survival time, dose: 100.0 mg/kg/injection, schedule: Q04DX002 (ip), vehicle: saline with Tween-80 96 % of control and 98 % of control

CCOC(=O)C1C(C#N)C2OC1C(Cl)C2Cl (stereo not drawn)
inactive: [1] 100 % of control | [2] 102 % of control | [3] 94 % of control

CC1=C(/C=C/C(C)=C/C=C/C(C)=C/C(=O)O)C(C)(C)CCC1
inactive: endpoint: mean survival time, dose: 88.0 mg/kg/injection, schedule: Q01DX009 (ip), vehicle: steriod suspending solution 89 % of control | [4] 100 % of control | endpoint: mean survival time, dose: 200.0 mg/kg/injection, schedule: Q01DX001 (sc), vehicle: steriod suspending solution 104 % of control | [5] 94 % of control | endpoint: mean survival time, dose: 400.0 mg/kg/injection, schedule: Q01DX001 (sc), vehicle: steriod suspending solution 98 % of control | [6] 91 % of control | endpoint: median survival time, dose: 25.0 mg/kg/injection, schedule: Q01DX009 (ip), vehicle: other 111 % of control | endpoint: median survival time, dose: 50.0 mg/kg/injection, schedule: Q01DX009 (ip), vehicle: other 100 % of control | endpoint: median survival time, dose: 100.0 mg/kg/injection, schedule: Q01DX009 (ip), vehicle: other 100 % of control | endpoint: median survival time, dose: 200.0 mg/kg/injection, schedule: Q01DX009 (ip), vehicle: other 100 % of control

CN(C)C(=O)ON=C1c2ccccc2-c2ccccc21
inactive: endpoint: mean survival time, dose: 100.0 mg/kg/injection, schedule: Q01DX001 (ip), vehicle: saline 103 % of control | endpoint: mean survival time, dose: 200.0 mg/kg/injection, schedule: Q01DX001 (ip), vehicle: saline 97 % of control | endpoint: mean survival time, dose: 400.0 mg/kg/injection, schedule: Q01DX001 (ip), vehicle: saline 103 % of control

NC(NCCN1CC1)(C(F)(F)F)C(F)(F)F
inactive: endpoint: mean survival time, dose: 10.0 mg/kg/injection, schedule: Q04DX003 (ip), vehicle: Klucel (hydroxypropylcellulose) (HPC) 109 % of control | endpoint: mean survival time, dose: 20.0 mg/kg/injection, schedule: Q01DX001 (ip), vehicle: Klucel (hydroxypropylcellulose) (HPC) 105 % of control | endpoint: mean survival time, dose: 20.0 mg/kg/injection, schedule: Q04DX003 (ip), vehicle: Klucel (hydroxypropylcellulose) (HPC) 104 % of control | endpoint: mean survival time, dose: 40.0 mg/kg/injection, schedule: Q01DX001 (ip), vehicle: Klucel (hydroxypropylcellulose) (HPC) 101 % of control | endpoint: mean survival time, dose: 40.0 mg/kg/injection, schedule: Q04DX003 (ip), vehicle: Klucel (hydroxypropylcellulose) (HPC) 109 % of control

CCCCN=C=NCCCC
inactive: endpoint: mean survival time, dose: 0.05 mg/kg/injection, schedule: Q01DX Z (ip), vehicle: saline 96 % of control | endpoint: mean survival time, dose: 0.08 mg/kg/injection, schedule: Q01DX Z (ip), vehicle: saline 90 % of control | endpoint: mean survival time, dose: 0.12 mg/kg/injection, schedule: Q01DX Z (ip), vehicle: saline 104 % of control | endpoint: mean survival time, dose: 100.0 mg/kg/injection, schedule: Q01DX001 (ip), vehicle: Klucel (hydroxypropylcellulose) (HPC) 93 % of control | endpoint: mean survival time, dose: 200.0 mg/kg/injection, schedule: Q01DX001 (ip), vehicle: Klucel (hydroxypropylcellulose) (HPC) 93 % of control

CCCCNC(C)(C)C1(c2ccc(Cl)cc2)SSC(c2ccc(Cl)cc2)(C(C)(C)NCCCC)SS1 (stereo not drawn)
inactive: [1] 99 % of control | [7] 93 % of control | [2] 99 % of control | [8] 101 % of control | [9] 97 % of control

N#CCc1ccc(Cl)c(Cl)c1
inactive: endpoint: mean survival time, dose: 5.0 mg/kg/injection, schedule: Q01DX001 (ip), vehicle: saline 100 % of control | endpoint: mean survival time, dose: 10.0 mg/kg/injection, schedule: Q01DX001 (ip), vehicle: saline 105 % of control | endpoint: mean survival time, dose: 20.0 mg/kg/injection, schedule: Q01DX001 (ip), vehicle: saline 95 % of control | endpoint: mean survival time, dose: 40.0 mg/kg/injection, schedule: Q01DX001 (ip), vehicle: saline 95 % of control | endpoint: mean survival time, dose: 80.0 mg/kg/injection, schedule: Q01DX001 (ip), vehicle: saline 98 % of control

CN(C)CNC=O
inactive: [10] 86 % of control | endpoint: mean survival time, dose: 50.0 mg/kg/injection, schedule: Q01DX009 (ip), vehicle: saline 96 % of control | endpoint: mean survival time, dose: 100.0 mg/kg/injection, schedule: Q01DX009 (ip), vehicle: saline 96 % of control and 99 % of control | [11] 103 % of control | [12] 106 % of control | [13] 97 % of control

CCCCOC(=Nc1ccccc1)N(c1ccccc1)c1ccccc1
inactive: endpoint: mean survival time, dose: 222.0 mg/kg/injection, schedule: Q01DX Z (ip), vehicle: methylcellulose (MC) 88 % of control | endpoint: mean survival time, dose: 333.0 mg/kg/injection, schedule: Q01DX Z (ip), vehicle: methylcellulose (MC) 94 % of control | endpoint: mean survival time, dose: 500.0 mg/kg/injection, schedule: Q01DX Z (ip), vehicle: methylcellulose (MC) 98 % of control

O=C(O)c1ccc(S(=O)(=O)O)cc1C(=O)O
inactive: endpoint: mean survival time, dose: 50.0 mg/kg/injection, schedule: Q01DX001 (sc), vehicle: olive oil, sesame oil, peanut oil 104 % of control | endpoint: mean survival time, dose: 100.0 mg/kg/injection, schedule: Q01DX001 (sc), vehicle: olive oil, sesame oil, peanut oil 102 % of control | [4] 89 % of control | [11] 104 % of control | endpoint: mean survival time, dose: 200.0 mg/kg/injection, schedule: Q01DX001 (sc), vehicle: olive oil, sesame oil, peanut oil 96 % of control | [5] 88 % of control | [12] 102 % of control | endpoint: mean survival time, dose: 400.0 mg/kg/injection, schedule: Q01DX001 (sc), vehicle: olive oil, sesame oil, peanut oil 98 % of control | [13] 101 % of control

NC(=NC1CCC(C2CCC(N)CC2)CC1)C(N)=NC1CCC(C2CCC(N)CC2)CC1 (stereo not drawn)
inactive: [4] 98 % of control | endpoint: mean survival time, dose: 100.0 mg/kg/injection, schedule: Q04DX003 (ip), vehicle: saline with Tween-80 100 % of control | [5] 98 % of control | endpoint: mean survival time, dose: 200.0 mg/kg/injection, schedule: Q04DX003 (ip), vehicle: saline with Tween-80 91 % of control | [6] 98 % of control | endpoint: mean survival time, dose: 400.0 mg/kg/injection, schedule: Q04DX003 (ip), vehicle: saline with Tween-80 95 % of control

CC(C)(C)C1CSC(c2ccccc2)SC1 (stereo not drawn)
inactive: endpoint: mean survival time, dose: 12.5 mg/kg/injection, schedule: Q04DX002 (ip), vehicle: Klucel (hydroxypropylcellulose) (HPC) 98 % of control | endpoint: mean survival time, dose: 25.0 mg/kg/injection, schedule: Q04DX002 (ip), vehicle: Klucel (hydroxypropylcellulose) (HPC) 92 % of control | endpoint: mean survival time, dose: 50.0 mg/kg/injection, schedule: Q04DX002 (ip), vehicle: Klucel (hydroxypropylcellulose) (HPC) 98 % of control

CCNC1C2CCC(C2)C1c1ccccc1 (stereo not drawn)
inactive: endpoint: mean survival time, dose: 3.12 mg/kg/injection, schedule: Q01DX009 (ip), vehicle: saline 94 % of control | endpoint: mean survival time, dose: 6.25 mg/kg/injection, schedule: Q01DX009 (ip), vehicle: saline 94 % of control | endpoint: mean survival time, dose: 12.5 mg/kg/injection, schedule: Q01DX009 (ip), vehicle: saline 89 % of control | [10] 93 % of control | endpoint: mean survival time, dose: 25.0 mg/kg/injection, schedule: Q04DX003 (ip), vehicle: saline 89 % of control | endpoint: mean survival time, dose: 50.0 mg/kg/injection, schedule: Q04DX003 (ip), vehicle: saline 94 % of control

Nc1cc(Cl)c(Cl)cc1S(=O)(=O)O
inactive: [1] 101 % of control | [7] 102 % of control | [2] 98 % of control | [8] 98 % of control | [3] 92 % of control | [9] 96 % of control
